# Measurements from patent US9149038B2, “4-amino-6-(heterocyclic)picolinates and 6-amino-2-(heterocyclic)pyrimidine-4-carboxylates and their use as herbicides” (Dow AgroSciences LLC, priority 2013, dated 2015).
# Where two headings read alike, the source gives them in different places.
# Test system: Wheat and Barley and weed species
# Experiment: Post-Emergent Test III: postemergent herbicidal activity in wheat and barley, visual rating after 21 d and probit GR20/GR50/GR80/GR90 (Tables 9-13)
# Format: in vivo
# Settings: for pest or weed control at 17.5 g/ha / pest or weed control at 35 g/ha / pest or weed control at 70 g/ha: post-emergence, 504 h
# Outline: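 Greenhouse plants (~18/17 °C, 14 h photoperiod) at second–third true leaf stage sprayed at 187 L/ha with a high rate and ½× to 1/16× serial dilutions. Visual injury 0–100% versus solvent-blank controls scored at 21 d; GR20, GR50, GR80 and GR90 derived by probit analysis across rates.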
structure (smiles),measurement,setting,value
Nc1c(F)c(-c2ccc(Cl)c3c2OC(F)(F)O3)nc(C(=O)O)c1Cl [Compound 82],Visual Growth Reduction (%) 21 Days After Application CIRAR,"CIRAR Canada thistle (Cirsium arvense), 17.5 g ai/ha",B (85-94)
same,Visual Growth Reduction (%) 21 Days After Application CIRAR,"CIRAR Canada thistle (Cirsium arvense), 35 g ai/ha",B (85-94)
same,Visual Growth Reduction (%) 21 Days After Application CIRAR,"CIRAR Canada thistle (Cirsium arvense), 70 g ai/ha",B (85-94)
same,GR50 CIRAR,"CIRAR Canada thistle (Cirsium arvense), growth reduction of 50%, probit analysis",1 g ai/ha
same,GR80 CIRAR,"CIRAR Canada thistle (Cirsium arvense), growth reduction of 80%, probit analysis",10 g ai/ha
same,GR90 CIRAR,"CIRAR Canada thistle (Cirsium arvense), growth reduction of 90%, probit analysis",34 g ai/ha
same,Visual Growth Reduction (%) 21 Days After Application GALAP,"GALAP cleavers (Galium aparine), 17.5 g ai/ha",D (60-74)
same,Visual Growth Reduction (%) 21 Days After Application GALAP,"GALAP cleavers (Galium aparine), 35 g ai/ha",B (85-94)
same,Visual Growth Reduction (%) 21 Days After Application GALAP,"GALAP cleavers (Galium aparine), 70 g ai/ha",B (85-94)
same,GR50 GALAP,"GALAP cleavers (Galium aparine), growth reduction of 50%, probit analysis",10 g ai/ha
same,GR80 GALAP,"GALAP cleavers (Galium aparine), growth reduction of 80%, probit analysis",33 g ai/ha
same,GR90 GALAP,"GALAP cleavers (Galium aparine), growth reduction of 90%, probit analysis",64 g ai/ha
same,GR20 HORVS,"HORVS barley, spring (crop), growth reduction of 20%, probit analysis",7 g ai/ha
same,pest or weed control at 17.5 g/ha,"Hordeum vulgare, HORVS barley, spring (crop), 17.5 g ai/ha, read-out: Visual Growth Reduction (%) 21 Days After Application HORVS",30 to 44%
same,pest or weed control at 35 g/ha,"Hordeum vulgare, HORVS barley, spring (crop), 35 g ai/ha, read-out: Visual Growth Reduction (%) 21 Days After Application HORVS",60 to 74%
same,pest or weed control at 70 g/ha,"Hordeum vulgare, HORVS barley, spring (crop), 70 g ai/ha, read-out: Visual Growth Reduction (%) 21 Days After Application HORVS",75 to 84%
same,Visual Growth Reduction (%) 21 Days After Application KCHSC,"KCHSC kochia (Kochia scoparia), 17.5 g ai/ha",D (60-74)
same,Visual Growth Reduction (%) 21 Days After Application KCHSC,"KCHSC kochia (Kochia scoparia), 35 g ai/ha",C (75-84)
same,Visual Growth Reduction (%) 21 Days After Application KCHSC,"KCHSC kochia (Kochia scoparia), 70 g ai/ha",C (75-84)
same,GR50 KCHSC,"KCHSC kochia (Kochia scoparia), growth reduction of 50%, probit analysis",2 g ai/ha
same,GR80 KCHSC,"KCHSC kochia (Kochia scoparia), growth reduction of 80%, probit analysis",83 g ai/ha
same,GR90 KCHSC,"KCHSC kochia (Kochia scoparia), growth reduction of 90%, probit analysis",>140 g ai/ha
same,Visual Growth Reduction (%) 21 Days After Application LAMPU,"LAMPU purple deadnettle (Lamium purpureum), 17.5 g ai/ha",G (0-29)
same,Visual Growth Reduction (%) 21 Days After Application LAMPU,"LAMPU purple deadnettle (Lamium purpureum), 35 g ai/ha",G (0-29)
same,Visual Growth Reduction (%) 21 Days After Application LAMPU,"LAMPU purple deadnettle (Lamium purpureum), 70 g ai/ha",F (30-44)
same,GR50 LAMPU,"LAMPU purple deadnettle (Lamium purpureum), growth reduction of 50%, probit analysis",89 g ai/ha
same,GR80 LAMPU,"LAMPU purple deadnettle (Lamium purpureum), growth reduction of 80%, probit analysis",131 g ai/ha
same,GR90 LAMPU,"LAMPU purple deadnettle (Lamium purpureum), growth reduction of 90%, probit analysis",>140 g ai/ha
same,Visual Growth Reduction (%) 21 Days After Application MATCH,"MATCH wild chamomile (Matricaria recutita L.), 17.5 g ai/ha",C (75-84)
same,Visual Growth Reduction (%) 21 Days After Application MATCH,"MATCH wild chamomile (Matricaria recutita L.), 35 g ai/ha",C (75-84)
same,Visual Growth Reduction (%) 21 Days After Application MATCH,"MATCH wild chamomile (Matricaria recutita L.), 70 g ai/ha",B (85-94)
same,GR50 MATCH,"MATCH wild chamomile (Matricaria recutita L.), growth reduction of 50%, probit analysis",18 g ai/ha
same,GR80 MATCH,"MATCH wild chamomile (Matricaria recutita L.), growth reduction of 80%, probit analysis",35 g ai/ha
same,GR90 MATCH,"MATCH wild chamomile (Matricaria recutita L.), growth reduction of 90%, probit analysis",49 g ai/ha
same,Visual Growth Reduction (%) 21 Days After Application PAPRH,"PAPRH common poppy (Papaver rhoeas), 17.5 g ai/ha",G (0-29)
same,Visual Growth Reduction (%) 21 Days After Application PAPRH,"PAPRH common poppy (Papaver rhoeas), 35 g ai/ha",G (0-29)
same,Visual Growth Reduction (%) 21 Days After Application PAPRH,"PAPRH common poppy (Papaver rhoeas), 70 g ai/ha",F (30-44)
same,GR50 PAPRH,"PAPRH common poppy (Papaver rhoeas), growth reduction of 50%, probit analysis",113 g ai/ha
same,GR80 PAPRH,"PAPRH common poppy (Papaver rhoeas), growth reduction of 80%, probit analysis",>140 g ai/ha
same,GR90 PAPRH,"PAPRH common poppy (Papaver rhoeas), growth reduction of 90%, probit analysis",>140 g ai/ha
same,Visual Growth Reduction (%) 21 Days After Application SASKR,"SASKR Russian thistle (Salsola iberica), 17.5 g ai/ha",B (85-94)
same,Visual Growth Reduction (%) 21 Days After Application SASKR,"SASKR Russian thistle (Salsola iberica), 35 g ai/ha",B (85-94)
same,Visual Growth Reduction (%) 21 Days After Application SASKR,"SASKR Russian thistle (Salsola iberica), 70 g ai/ha",B (85-94)
same,GR50 SASKR,"SASKR Russian thistle (Salsola iberica), growth reduction of 50%, probit analysis",1 g ai/ha
same,GR80 SASKR,"SASKR Russian thistle (Salsola iberica), growth reduction of 80%, probit analysis",10 g ai/ha
same,GR90 SASKR,"SASKR Russian thistle (Salsola iberica), growth reduction of 90%, probit analysis",32 g ai/ha
same,Visual Growth Reduction (%) 21 Days After Application SINAR,"SINAR wild mustard (Sinapis arvensis), 17.5 g ai/ha",A (95-100)
same,Visual Growth Reduction (%) 21 Days After Application SINAR,"SINAR wild mustard (Sinapis arvensis), 35 g ai/ha",A (95-100)
same,Visual Growth Reduction (%) 21 Days After Application SINAR,"SINAR wild mustard (Sinapis arvensis), 70 g ai/ha",A (95-100)
same,GR50 SINAR,"SINAR wild mustard (Sinapis arvensis), growth reduction of 50%, probit analysis",0.02 g ai/ha
same,GR80 SINAR,"SINAR wild mustard (Sinapis arvensis), growth reduction of 80%, probit analysis",0.5 g ai/ha
same,GR90 SINAR,"SINAR wild mustard (Sinapis arvensis), growth reduction of 90%, probit analysis",2 g ai/ha
same,GR20 TRZAS,"TRZAS wheat, spring (crop), growth reduction of 20%, probit analysis",4 g ai/ha
same,pest or weed control at 17.5 g/ha,"Triticum aestivum, TRZAS wheat, spring (crop), 17.5 g ai/ha, read-out: Visual Growth Reduction (%) 21 Days After Application TRZAS",60 to 74%
same,pest or weed control at 35 g/ha,"Triticum aestivum, TRZAS wheat, spring (crop), 35 g ai/ha, read-out: Visual Growth Reduction (%) 21 Days After Application TRZAS",60 to 74%
same,pest or weed control at 70 g/ha,"Triticum aestivum, TRZAS wheat, spring (crop), 70 g ai/ha, read-out: Visual Growth Reduction (%) 21 Days After Application TRZAS",75 to 84%
same,Visual Growth Reduction (%) 21 Days After Application VERPE,"VERPE bird's-eye speedwell (veronica persica), 17.5 g ai/ha",G (0-29)
same,Visual Growth Reduction (%) 21 Days After Application VERPE,"VERPE bird's-eye speedwell (veronica persica), 35 g ai/ha",G (0-29)
same,Visual Growth Reduction (%) 21 Days After Application VERPE,"VERPE bird's-eye speedwell (veronica persica), 70 g ai/ha",G (0-29)
same,GR50 VERPE,"VERPE bird's-eye speedwell (veronica persica), growth reduction of 50%, probit analysis",>140 g ai/ha
same,GR80 VERPE,"VERPE bird's-eye speedwell (veronica persica), growth reduction of 80%, probit analysis",>140 g ai/ha
same,GR90 VERPE,"VERPE bird's-eye speedwell (veronica persica), growth reduction of 90%, probit analysis",>140 g ai/ha
same,Visual Growth Reduction (%) 21 Days After Application VIOTR,"VIOTR wild pansy (Viola tricolor), 17.5 g ai/ha",E (45-59)
same,Visual Growth Reduction (%) 21 Days After Application VIOTR,"VIOTR wild pansy (Viola tricolor), 35 g ai/ha",D (60-74)
same,Visual Growth Reduction (%) 21 Days After Application VIOTR,"VIOTR wild pansy (Viola tricolor), 70 g ai/ha",D (60-74)
same,GR50 VIOTR,"VIOTR wild pansy (Viola tricolor), growth reduction of 50%, probit analysis",31 g ai/ha
same,GR80 VIOTR,"VIOTR wild pansy (Viola tricolor), growth reduction of 80%, probit analysis",62 g ai/ha
same,GR90 VIOTR,"VIOTR wild pansy (Viola tricolor), growth reduction of 90%, probit analysis",90 g ai/ha
